Literature values in US6589787B2, “T-type calcium channel variants; compositions thereof; and uses” (Syntex (U.S.A.) LLC, priority 1998, dated 2003).

Tested on: T-type Ca^2+ current
Conditions: freshly dissected neurons from dorsal root ganglia (DRG neurons) of adult rats

CCC1(C)CC(=O)NC1=O (stereo not shown) [ethosuximide]
block of T-type Ca^2+ current: fully block
